Values of other authors, collected in patent publication US20110217294A1, “COMBINATION OF HGF INHIBITOR AND HEDGEHOG INHIBITOR TO TREAT CANCER” (priority 2009, published 2011).
pKd: −log10 of the molar value.

Legend:
[1] = molecular target: heparin sulfate proteoglycans (HSPG); details: low affinity binding site
[2] = molecular target: cMet receptor (Homo sapiens, UniProt P08581); details: high affinity binding site
cMet receptor, sequence (P08581 25-1390): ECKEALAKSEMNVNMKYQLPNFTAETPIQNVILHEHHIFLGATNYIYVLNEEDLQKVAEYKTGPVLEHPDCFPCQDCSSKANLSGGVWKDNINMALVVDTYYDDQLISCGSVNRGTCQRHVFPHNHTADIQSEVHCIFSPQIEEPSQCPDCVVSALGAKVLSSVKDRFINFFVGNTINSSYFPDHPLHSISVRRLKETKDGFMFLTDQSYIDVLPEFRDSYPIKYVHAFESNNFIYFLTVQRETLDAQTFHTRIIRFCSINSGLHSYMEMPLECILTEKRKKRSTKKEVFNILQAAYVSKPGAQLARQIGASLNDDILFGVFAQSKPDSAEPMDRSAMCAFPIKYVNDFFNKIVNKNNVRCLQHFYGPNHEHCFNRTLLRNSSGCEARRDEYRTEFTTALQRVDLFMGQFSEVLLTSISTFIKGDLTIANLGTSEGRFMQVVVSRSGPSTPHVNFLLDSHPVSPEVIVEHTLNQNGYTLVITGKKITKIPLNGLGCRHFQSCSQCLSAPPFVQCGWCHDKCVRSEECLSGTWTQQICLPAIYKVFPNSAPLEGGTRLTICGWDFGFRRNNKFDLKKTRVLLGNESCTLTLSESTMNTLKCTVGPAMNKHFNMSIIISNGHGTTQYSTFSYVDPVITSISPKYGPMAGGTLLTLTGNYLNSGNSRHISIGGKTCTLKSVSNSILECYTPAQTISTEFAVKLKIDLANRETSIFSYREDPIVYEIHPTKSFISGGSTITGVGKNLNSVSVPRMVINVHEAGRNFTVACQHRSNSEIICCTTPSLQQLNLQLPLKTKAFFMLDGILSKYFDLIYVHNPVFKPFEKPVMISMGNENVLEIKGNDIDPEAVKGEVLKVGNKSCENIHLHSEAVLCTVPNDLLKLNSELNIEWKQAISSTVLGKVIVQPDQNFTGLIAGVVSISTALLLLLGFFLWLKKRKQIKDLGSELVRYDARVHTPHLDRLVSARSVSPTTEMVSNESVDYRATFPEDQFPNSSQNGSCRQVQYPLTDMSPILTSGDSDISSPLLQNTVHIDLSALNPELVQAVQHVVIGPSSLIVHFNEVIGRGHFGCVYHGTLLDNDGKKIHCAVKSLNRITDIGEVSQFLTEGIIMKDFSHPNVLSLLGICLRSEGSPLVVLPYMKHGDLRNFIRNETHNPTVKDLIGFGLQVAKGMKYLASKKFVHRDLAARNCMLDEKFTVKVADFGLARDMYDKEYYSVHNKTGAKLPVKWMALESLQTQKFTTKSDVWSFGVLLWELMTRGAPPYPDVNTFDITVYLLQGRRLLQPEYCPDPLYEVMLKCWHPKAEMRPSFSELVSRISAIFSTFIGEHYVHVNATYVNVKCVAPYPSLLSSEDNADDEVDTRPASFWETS

HGF: Human Hepatocyte Growth Factor, 102 kDa heterodimeric polypeptide
pKd [1]: 9.00 | pKd [2]: 9.70
